Test results as given in article PMC8173716 (Nature nanotechnology, 2020).

Assays:
NE [1] = conditions: cited from earlier work
NE [2] = test: vABN breath test in PA01-inoculated mice treated with sivelestat; assay type: in vivo, mouse; conditions: sivelestat before vABN delivery
mouse NE = test: Inhibition of mouse NE cleavage of vABNs by sivelestat, in vitro; assay type: biochemical
NE [3] = test: vABN breath test in LPS-challenged mice given prophylactic A1AT; assay type: in vivo, mouse (female C57BL/6N)
NE [4] = test: vABN breath test in WT and SERPINA1a-e knockout mice; assay type: in vivo, mouse (male C57BL/6 WT and Serpina1a-e knockout); conditions: 1 mg prophylactic A1AT, LPS
human NE = conditions: cited from earlier work
NE in mouse lung lysates = conditions: cited from earlier work

Molecule: CC(C)(C)C(=O)Oc1ccc(S(=O)(=O)Nc2ccccc2C(=O)NCC(=O)O)cc1 [sivelestat]
- specific inhibition of NE (NE [1]): specifically inhibits NE
- attenuation of breath signal in infected mice (NE [2]): ~ 75%
- inhibition of mouse NE cleavage of vABNs (mouse NE): mouse NE can be inhibited using sivelestat to prevent cleavage of vABNs

Molecule: A1AT: Alpha-1 antitrypsin, a protein inhibitor of NE
- neutrophil recruitment / anti-inflammatory effect (NE [1]): suppressed neutrophil recruitment, a well-documented anti-inflammatory effect of A1AT
- breath signal after LPS challenge (NE [3]; 1-mg A1AT 1–2 days before LPS challenge, vs untreated LPS-challenged controls): significantly reduce breath signal
- breath signal after LPS challenge (NE [3]; 1-mg A1AT 3 days before LPS challenge (D-3), vs untreated controls): absence of significant difference
- AUROC, untreated vs A1AT-treated (NE [3]; A1AT 1 day before LPS challenge (D-1)): 0.97
- AUROC, untreated vs A1AT-treated (NE [3]; A1AT 2 days before LPS challenge (D-2)): 0.91
- AUROC, untreated vs A1AT-treated (NE [3]; A1AT 3 days before LPS challenge (D-3)): 0.50
- correlation between breath signal and A1AT in the lungs (Pearson's r) (NE [3]; p = 0.0293): −0.6018
- protection by day 3 (NE [3]; single 1 mg AAT dose): No protection is observed by day 3
- breath signal in A1AT-treated knockout mice vs untreated knockout mice (NE [4]; p < 0.05, n = 7–8): significantly lower than that in untreated knockout mice
- AUROC, A1AT-treated knockout vs WT with acute inflammation (NE [4]; p = 0.568): 0.60

Molecule: Ac-Nle(O-Bzl)-Met(O)2-Oic-Abu-ACC
- selectivity for human NE (human NE): selectivity for human NE
- catalytic efficiency (kcat/Km) (human NE; fluorogenic ACC substrate): 4.79e+07 M⁻¹ s⁻¹
- binding in mouse lung lysates (NE in mouse lung lysates): bind specifically to NE in mouse lung lysates
